Structures are written as SMILES.

Series [1] concerns Salmonella typhimurium TA1538. As to the kind of experiment: Ames assay (dark mutagenicity), strain TA1538. For orientation: In the Ames test, an excess of revertant colonies over the control signals mutagenicity.
A further series concerns mouse reticulocytes. As to conditions: increased dose levels, male Balb/c mice, tail vein. As to the method:
Male Balb/c mice were then injected with 0.1 ml of a compound solution via the tail vein. At least 3 mice were injected per dose level. Saline only was used as a negative control. For a positive control, cyclophosphamide (cycloPP) was administered at a dose of 30 mg/kg. In the experimental group, the injections were repeated once per day for four days. In the positive control group, the sample was administered only once, on day three. On day 5, several microliters of blood were withdrawn from each subject and smeared on a glass slide. Cells were fixed in absolute methanol and stored in a slide rack.
For analysis, cells were stained with acridine orange and visualized under a fluorescence microscope by counting: (i) the number of reticulocytes per 5000 erythrocytes; and (ii) the number of micronucleated reticulocytes per 1000 reticulocytes. Reticulocytes were distinguished by their red fluorescence due to the presence of RNA. Micronuclei were distinguished by their green fluorescence due to the presence of DNA. The percentage of reticulocytes (%PCE) was then calculated. A decrease in the frequency of […] in the percentage of reticulocytes, is an indication of bone marrow toxicity. The percentage of reticulocytes with micronuclei (%PCE with MN) was also calculated. An increase in %PCE with MN is a measure of clastogenicity.
After initial results were determined, the experiment was repeated using increased dose levels, until: (i) Micronucleus formation was seen; or (ii) Bone marrow toxicity was observed; or (ii) The lethal dose was reached; or (iv) A dose of 5 g/kg was administered.

For a further series, the system named is Pseudomonus. As to the kind of experiment: Bacterial inactivation (colony forming units). Format: cell-based. The conditions noted are these: 16 μM, after 5 J/cm^2 irradiation, starting titer 6.5 logs, 15% FBS in DMEM. As to the method: In this example bacterial inactivation by the photoreactive nucleic acid binding compounds of the present invention was measured as a function of the ability of the bacteria to subsequently replicate. A gram negative bacteria was chosen as representative of the more difficult bacterial strains to inactivate.
The bacteria, a strain of Pseudomonus, was innoculated into LB with a sterile loop and grown overnight in a shaker at 37° C. Based on the approximation that one OD at 610 nm is equivalent to 5×10^8 colony forming units (cfu)/mL, a 1:10 dilution of the culture was measured on a spectrophotometer, (manufactured by Shimatsu). The bacterial culture was added to a solution of 15% fetal bovine serum in DMEM to a final bacteria concentration of approximately 10^6/mL. An aliquot (0.8 mL) was transferred to a 1.5 mL snap-top polyethylene tube. An aliquot (0.004-0.040 mL) of the test compound stock solution prepared in water, ethanol or dimethylsulfoxide at 0.80-8.0 mM was added to the tube. Compounds were tested at a concentration of 16 μM. The tubes were placed in a light device as described in EXAMPLE 1 and irradiated with 1.3 J/cm^2, 1.2 J/cm^2, and finally 2.5 J/cm^2, for a total of 5 J/cm^2. […] The colony forming units were then counted the following morning and the titer of the […] remaining after phototreatment was calculated based on the dilution factors. […]

In the case of `Cc1oc2c(C)c3oc(=O)cc(C)c3cc2c1COCCN` [Compound 2, 4′-(4-amino-2-oxa)butyl-4,5′,8-trimethylpsoralen], the revertants per plate is on record as −8 in series [1] (TA1538 −S9, 5 μg/plate) and −13 in series [1] (TA1538 −S9, 10 μg/plate). Further, the “outcome of dose escalation in the micronucleus assay” value in the series on mouse reticulocytes is on record as “the acutely lethal dose was reached before there were any signs of bone marrow toxicity or micronucleus formation”. In addition, the “log kill of bacteria” value in the series on Pseudomonus is recorded as above 5.5 logs.

On to `Cc1oc2c(C)c3oc(=O)cc(C)c3cc2c1CNCCCCN` [Compound 6, 4′-(6-amino-2-aza)hexyl-4,5′,8-trimethylpsoralen], for which the revertants per plate in series [1] (TA1538 −S9, 5 μg/plate) is −5; in series [1] (TA1538 −S9, 10 μg/plate), −2. For the same compound, the “outcome of dose escalation in the micronucleus assay” value in the series on mouse reticulocytes was “the acutely lethal dose was reached before there were any signs of bone marrow toxicity or micronucleus formation”. Further, the “log kill of bacteria” value in the series with Pseudomonus was above 5.5 logs.

(Values after patent US6469052B2, “Compounds for the photodecontamination of pathogens in blood” (Cerus Corporation, priority 1993, dated 2002).)
